Tests used:
Type in all cases: in vivo
[1] = system: Plutella xylostella (Diamond Back Moth); assay: Plutella xylostella larval test on artificial diet; conditions: 144 h, 200 ppm (concentration in well 18 ppm), L2 larvae, larval mortality and growth regulation after 6 days
Source text: (§1) This Example illustrates the insecticidal and acaricidal properties of compounds of formula (I).

[2] = system: Diabrotica balteata (Corn Root Worm); assay: Diabrotica balteata larval test on artificial diet; conditions: 120 h, 200 ppm (concentration in well 18 ppm), L2 larvae, larval mortality and growth regulation after 5 days
Source text: as §1

[3] = system: Thrips tabaci (Onion Thrips); assay: Thrips tabaci leaf disc spray test; conditions: foliar, 168 h, 200 ppm spray on sunflower leaf discs, mixed ages, mortality after 7 days
Source text: as §1

[4] = system: Tetranychus urticae (Two-Spotted Spider Mite); assay: Tetranychus urticae leaf disc spray test; conditions: foliar, 192 h, 200 ppm spray on bean leaf discs, mixed ages, egg, larval and adult mortality 8 days later
Source text: as §1

[5] = system: Spodoptera littoralis (Egyptian Cotton Leafworm); assay: Spodoptera littoralis leaf disc spray test; conditions: foliar, 72 h, 200 ppm spray on cotton leaf discs, mortality, feeding behavior, growth regulation 3 days after treatment
Method: This Example illustrates the insecticidal and acaricidal properties of compounds of formula (I). Tests were performed as follows:

[6] = system: Heliothis virescens (Tobacco Budworm); assay: Heliothis virescens egg test on artificial diet; conditions: 96 h, 200 ppm (concentration in well 18 ppm), eggs 0-24 h old on artificial diet, egg mortality, larval mortality, growth regulation after 4 days
Source text: as §1

Measured: pest or weed control at 200 ppm

Cc1cc(C2=NOC(c3cc(Cl)cc(Cl)c3)(C(F)(F)F)C2)ccc1C(=O)N1CC2(CSC2)C1 (stereo not shown) [Compound C013, [4-[5-(3,5-dichlorophenyl)-5-(trifluoromethyl)-4H-isoxazol-3-yl]-2-methyl-phenyl]-(6-thia-2-azaspiro[3.3]heptan-2-yl)methanone]
≥ 80%: [1] | [2] | [3] | [4]

O=C(NC1CSC1)c1ccc(C2=NOC(c3cc(Cl)cc(Cl)c3)(C(F)(F)F)C2)c([N+](=O)[O-])c1 (stereo not shown) [Compound B55, 4-[5-(3,5-dichlorophenyl)-5-trifluoromethyl-4H-isoxazol-3-yl]-3-nitro-N-(thietan-3-yl)benzamide]
≥ 80%: [5] | [6] | [1] | [2]

Cc1cc(C2=NOC(c3c[nH]c(C(F)(F)F)c3)(C(F)(F)F)C2)ccc1C(=O)NC1CSC1 (stereo not shown) [Compound C010, 2-methyl-N-(thietan-3-yl)-4-[5-(trifluoromethyl)-5-[5-(trifluoromethyl)-1H-pyrrol-3-yl]-4H-isoxazol-3-yl]benzamide]
≥ 80%: [3] | [4]

Cc1cc(C2=NOC(c3cn(CC(F)F)cc3C(C)(C)C)(C(F)(F)F)C2)ccc1C(=O)NC1CSC1 (stereo not shown) [Compound C005, 4-[5-[4-tert-butyl-1-(2,2-difluoroethyl)pyrrol-3-yl]-5-(trifluoromethyl)-4H-isoxazol-3-yl]-2-methyl-N-(thietan-3-yl)benzamide]
not listed: [3]
≥ 80%: all other assays above

Cc1cc(C2=NO[C@@](c3cc(Cl)c(Cl)c(Cl)c3)(C(F)(F)F)C2)ccc1C(=O)N[C@H]1C[S@@+]([O-])C1 [Compound C17, 2-methyl-N-(1-oxothietan-3-yl)-4-[(5S)-5-(3,4,5-trichlorophenyl)-5-(trifluoromethyl)-4H-isoxazol-3-yl]benzamide]
≥ 80%: all assays above

Cc1cc(C2=NO[C@@](c3cc(Cl)c(F)c(Cl)c3)(C(F)(F)F)C2)ccc1C(=O)NC1CS(=O)(=O)C1 [Compound C18, 4-[(5S)-5-(3,5-dichloro-4-fluoro-phenyl)-5-(trifluoromethyl)-4H-isoxazol-3-yl]-N-(1,1-dioxothietan-3-yl)-2-methyl-benzamide]
≥ 80%: all assays above

Nc1cc(C2=NOC(c3cc(Cl)cc(Cl)c3)(C(F)(F)F)C2)ccc1C(=O)NC1CSC1 (stereo not shown) [Compound B57, 4-[5-(3,5-dichlorophenyl)-5-trifluoromethyl-4H-isoxazol-3-yl]-2-amino-N-(thietan-3-yl)benzamide]
not listed: [3]
≥ 80%: all other assays above

Cc1cc(C2=NOC(c3cc(C(C)(C)C)c[nH]3)(C(F)(F)F)C2)ccc1C(=O)NC1CSC1 (stereo not shown) [Compound C003, 4-[5-(4-tert-butyl-1H-pyrrol-2-yl)-5-(trifluoromethyl)-4H-isoxazol-3-yl]-2-methyl-N-(thietan-3-yl)benzamide]
≥ 80%: [6]

Cc1cc(C2=NO[C@@](c3cc(Cl)cc(Cl)c3)(C(F)(F)F)C2)cnc1C(=O)N[C@H]1C[S@@+]([O-])C1 [Compound C16, 5-[(5S)-5-(3,5-dichlorophenyl)-5-(trifluoromethyl)-4H-isoxazol-3-yl]-3-methyl-N-(1-oxidothietan-1-ium-3-yl)pyridine-2-carboxamide]
≥ 80%: all assays above

Cc1cc(C2=NOC(c3c[nH]c(C(F)(F)F)c3)(C(F)(F)F)C2)ccc1C(=O)NC1CS(=O)(=O)C1 (stereo not shown) [Compound C008, N-(1,1-dioxothietan-3-yl)-2-methyl-4-[5-(trifluoromethyl)-5-[5-(trifluoromethyl)-1H-pyrrol-3-yl]-4H-isoxazol-3-yl]benzamide]
≥ 80%: [6] | [3] | [4]

Cc1cc(C2=NOC(c3cc(Cl)cc(Cl)c3)(C(F)(F)F)C2)ccc1C(=O)NCC1CSC1 (stereo not shown) [Compound A130, 4-[5-(3,5-dichlorophenyl)-5-(trifluoromethyl)-4H-isoxazol-3-yl]-2-methyl-N-(thietan-3-ylmethyl)benzamide]
≥ 80%: all assays above

Cc1cc(C2=NOC(c3cc(C(F)(F)F)n(C)c3)(C(F)(F)F)C2)ccc1C(=O)NC1CSC1 (stereo not shown) [Compound C006, 2-methyl-4-[5-[1-methyl-5-(trifluoromethyl)pyrrol-3-yl]-5-(trifluoromethyl)-4H-isoxazol-3-yl]-N-(thietan-3-yl)benzamide]
not listed: [6]
≥ 80%: all other assays above

O=C(N[C@H]1C[S@@+]([O-])C1)c1ccc(C2=NO[C@@](c3cc(Cl)cc(Cl)c3)(C(F)(F)F)C2)cc1Cl [Compound C15, 2-chloro-4-[(5S)-5-(3,5-dichlorophenyl)-5-(trifluoromethyl)-4H-isoxazol-3-yl]-N-(1-oxidothietan-1-ium-3-yl)benzamide]
≥ 80%: all assays above

Cc1cc(C2=NOC(c3cc(Cl)cc(Cl)c3)(C(F)(F)F)C2)ccc1C(=O)NCC1CS(=O)(=O)C1 (stereo not shown) [Compound A132, 4-[5-(3,5-dichlorophenyl)-5-(trifluoromethyl)-4H-isoxazol-3-yl]-2-methyl-N-(1.1-dioxo-thietan-3-ylmethyl)benzamide]
≥ 80%: all assays above

Cc1cc(C2=[N+]([O-])OC(c3cc(Cl)cc(Cl)c3)(C(F)(F)F)C2)ccc1C(=O)NC1CS(=O)(=O)C1 (stereo not shown) [Compound C012, 4-[5-(3,5-dichlorophenyl)-2-oxido-5-(trifluoromethyl)-4H-isoxazol-2-ium-3-yl]-N-(1,1-dioxothietan-3-yl)-2-methyl-benzamide]
not listed: [3]
≥ 80%: all other assays above

Cc1cc(C2=[N+]([O-])OC(c3cc(Cl)cc(Cl)c3)(C(F)(F)F)C2)ccc1C(=O)NC1CSC1 (stereo not shown) [Compound C011, 4-[5-(3,5-dichlorophenyl)-2-oxido-5-(trifluoromethyl)-4H-isoxazol-2-ium-3-yl]-2-methyl-N-(thietan-3-yl)benzamide]
≥ 80%: [5] | [6] | [2]

Cc1cc(C2=NOC(c3c[nH]c(C(F)(F)F)c3)(C(F)(F)F)C2)ccc1C(=O)NC1C[S+]([O-])C1 (stereo not shown) [Compound C009, 2-methyl-N-(1-oxothietan-3-yl)-4-[5-(trifluoromethyl)-5-[5-(trifluoromethyl)-1H-pyrrol-3-yl]-4H-isoxazol-3-yl]benzamide]
≥ 80%: [1] | [3] | [4]

— US9247740B2, “Isoxazoline derivatives as insecticidal compounds” (Syngenta Participations AG, priority 2011, dated 2016)
